Experimental data: PMC2759397 (Bioorganic & medicinal chemistry, 2009)

How the values were obtained:
μ opioid receptors [1] = target: T1, μ opioid receptors (Cavia porcellus, UniProt A0ACM8Q262); parameters: species or system guinea pig; details: read-out: Agonist activity (% inhibition of contraction at 1 µM), GPI/LMMP
δ opioid receptors = δ opioid receptors (Mus musculus, UniProt P32300); details: read-out: Agonist activity (% inhibition of contraction at 1 µM), MVD
delta opioid receptors = delta opioid receptors (Mus musculus, UniProt P32300)
μ opioid receptors [2] = target: T1, μ opioid receptors; parameters: species or system guinea pig
opioid receptors = test: Radioligand competition assay, [3H]diprenorphine, rat brain membranes; type: binding; details: data not shown

T1 sequence (A0ACM8Q262 1-400): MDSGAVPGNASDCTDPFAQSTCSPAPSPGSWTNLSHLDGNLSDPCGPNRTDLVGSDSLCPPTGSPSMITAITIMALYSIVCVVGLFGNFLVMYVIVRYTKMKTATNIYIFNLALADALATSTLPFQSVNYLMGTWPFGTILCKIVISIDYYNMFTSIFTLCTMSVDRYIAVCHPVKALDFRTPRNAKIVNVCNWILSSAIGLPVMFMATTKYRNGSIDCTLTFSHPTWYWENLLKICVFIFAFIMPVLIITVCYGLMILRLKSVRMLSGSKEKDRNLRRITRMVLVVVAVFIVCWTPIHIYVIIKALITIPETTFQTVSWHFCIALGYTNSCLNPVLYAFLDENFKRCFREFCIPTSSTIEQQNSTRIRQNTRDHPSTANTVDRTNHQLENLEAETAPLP
Chain of δ opioid receptors (P32300 whole entry): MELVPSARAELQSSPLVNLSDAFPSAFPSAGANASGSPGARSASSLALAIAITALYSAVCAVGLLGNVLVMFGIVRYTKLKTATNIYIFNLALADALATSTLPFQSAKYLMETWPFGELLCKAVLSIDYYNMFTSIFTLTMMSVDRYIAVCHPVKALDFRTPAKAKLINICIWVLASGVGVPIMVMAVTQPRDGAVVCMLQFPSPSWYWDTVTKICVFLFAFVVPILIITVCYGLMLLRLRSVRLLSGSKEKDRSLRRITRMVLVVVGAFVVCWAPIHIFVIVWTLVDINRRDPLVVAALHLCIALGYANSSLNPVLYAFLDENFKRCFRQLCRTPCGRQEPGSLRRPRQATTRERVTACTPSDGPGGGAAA
Chain of delta opioid receptors (P32300 whole entry): as above

SMILES | inhibition at 1 µM (μ opioid receptors [1]) [%] | inhibition at 1 µM (δ opioid receptors) [%] | DPDPE Antagonism at 1 µM in the MVD (delta opioid receptors) | PL-017 Antagonism at 1 µM in the GPI/LMMP (μ opioid receptors [2]) | inhibition constants against binding of [3H]diprenorphine (opioid receptors)
Cc1c(CC(=O)O)c2ccccc2n1C1CCN(C)CC1 [Compound 9a, [2-methyl-1-(1-methyl-piperidin-4-yl)-1H-indol-3-yl]-acetic acid] | 0.7 | 17.9 | none at 1 µM | none at 1 µM | 
Cc1c(CC(=O)O)c2ccccc2n1C1CCN(CCc2ccccc2)CC1 [Compound 9c, [2-methyl-1-(1-phenethyl-piperidin-4-yl)-1H-indol-3-yl]-acetic acid] | 3.1 | 19.5 | none at 1 µM | none at 1 µM | micromolar range
COc1ccc2c(c1)c(CC(=O)O)c(C)n2C1CCN(C)CC1 [Compound 9d, [5-methoxy-2-methyl-1-(1-methyl-piperidin-4-yl)-1H-indol-3-yl]-acetic acid] | 0 | 2.8 | none at 1 µM | none at 1 µM | 
COc1ccc2c(c1)c(CC(=O)O)c(C)n2C1CCN(CCc2ccccc2)CC1 [Compound 9f, [5-methoxy-2-methyl-1-(1-phenethyl-piperidin-4-yl)-1H-indol-3-yl]-acetic acid] | 6 | 0 | none at 1 µM | none at 1 µM | micromolar range
